Results reported in patent US12582680B2, “Pharmaceutical composition for prevention, amelioration, or treatment of skin disease” (priority 2019, dated 2026).

Key:
S. cohnii = assay: Sensitivity to antibiotics, culture of skin bacteria in media containing antibiotics, number of colonies; assay type: cell-based; details: FIGS. 9C and 9E
Description: (§1) FIG. 9A is a schematic diagram showing an experimental flow. FIG. 9B is a graph that indicates changes over time of clinical scores in the skins of SPF-Tmem79^−/− mice inoculated with ampicillin (Amp) or fusidic acid (FA) being an antibiotic (ABx).
(§2) Further, the sensitivity of S. aureus and S. cohnii to both antibiotics was verified by using the antibiotics. The proliferation of S. aureus was suppressed by any one of the ampicillin and the fusidic acid (FIGS. 9C and 9D).

S. aureus = assay: as above; assay type: cell-based; details: FIGS. 9C and 9D
Description: as §1, §2

SPF-Tmem79-KO mouse = assay: Antibiotic in drinking water, dermatitis clinical scores of SPF-Tmem79-KO mouse; assay type: in vivo; details: 200 mg/mL in drinking water; FIG. 9B
Procedure: For the SPF-Tmem79-KO mouse and the control (SPF-WT mice), the clinical scores were evaluated on a 4-point scale of 0: normal, 1: mild, 2: moderate, and 3: severe for each of the four items of erythema, edema, erosion, and dryness. The degree of inflammation in the skin was evaluated by using the total value of the clinical scores of the four items. In the drawing, the SPF-Tmem79-KO mouse is described as “SPF Tmem79^−/−”, and the SPF-WT mouse is described as “SPF WT”. It can be understood that the SPF-Tmem79-KO mouse developed bimodal dermatitis.
Ampicillin (manufactured by NACALAI TESQUE, INC.) or fusidic acid (manufactured by Sigma-Aldrich Co. LLC.) was suspended in drinking water so as to be 200 mg/mL and the resultant drinking water was administered to the SPF-Tmem79-KO mouse, and the clinical scores were obtained with time.

[1] = test system: GF-WT mouse applied with imiquimod; assay: Imiquimod-initiated inflammation in GF-WT mouse, squalene and mifepristone; assay type: in vivo
Procedure: Imiquimod (Beselna cream, manufactured by MOCHIDA PHARMACEUTICAL CO., LTD.) was applied onto the ears of a GF-WT mouse at a dose of 50 mg per mouse once a day for 5 consecutive days.
Further, in another group of mice, mifepristone (M8046-1G, manufactured by Sigma-Aldrich Co. LLC) was administered to the mice freely at 210 μg/mL in drinking water during the experimental period.

[2] = mifepristone 210 μg/mL in drinking water

| SMILES | proliferation of S. cohnii (S. cohnii) | proliferation of S. aureus (S. aureus) | degree of dermatitis (clinical scores) (SPF-Tmem79-KO mouse) | suppression of imiquimod-initiated inflammation by S. cohnii, effect of mifepristone [1, 2] | suppression of imiquimod-initiated inflammation by squalene, effect of mifepristone [1, 2] | imiquimod-initiated inflammation (ear swelling and lymph node swelling) ([1]; S. cohnii 2.0×10^7 CFU first 3 days, squalene 200 μl per mouse for 5 days, FIGS. 22B and 22C) |
| --- | --- | --- | --- | --- | --- | --- |
| CC1(C)S[C@@H]2[C@H](NC(=O)[C@H](N)c3ccccc3)C(=O)N2[C@H]1C(=O)O [ampicillin] | significantly suppressed | suppressed | alleviation of the dermatitis was not observed |  |  |  |
| CC(=O)O[C@H]1C[C@@]2(C)[C@@H](C[C@@H](O)[C@H]3[C@@]4(C)CC[C@@H](O)[C@@H](C)[C@@H]4CC[C@@]32C)/C1=C(\CCC=C(C)C)C(=O)O [fusidic acid] | not suppressed | suppressed | alleviated |  |  |  |
| CC#C[C@]1(O)CC[C@H]2[C@@H]3CCC4=CC(=O)CCC4=C3[C@@H](c3ccc(N(C)C)cc3)C[C@@]21C [mifepristone] |  |  |  | inhibited | inhibition of suppressive effect |  |
| CC(C)=CCC/C(C)=C/CC/C(C)=C/CC/C=C(\C)CC/C=C(\C)CCC=C(C)C [squalene] |  |  |  |  |  | almost the same as that of S. cohnii |
